Drawing on BindingDB's records for doi:10.1016/j.bmcl.2007.04.051 (Eli Lilly, 2007), this text covers Ki for eight molecules.

The Ki is a dissociation constant, usually derived from enzyme kinetics or from competition with a known ligand. Lower therefore signals higher affinity.

In one assay the target is T1, Estrogen receptor (Homo sapiens, UniProt P03372).
T1 sequence (P03372 whole entry): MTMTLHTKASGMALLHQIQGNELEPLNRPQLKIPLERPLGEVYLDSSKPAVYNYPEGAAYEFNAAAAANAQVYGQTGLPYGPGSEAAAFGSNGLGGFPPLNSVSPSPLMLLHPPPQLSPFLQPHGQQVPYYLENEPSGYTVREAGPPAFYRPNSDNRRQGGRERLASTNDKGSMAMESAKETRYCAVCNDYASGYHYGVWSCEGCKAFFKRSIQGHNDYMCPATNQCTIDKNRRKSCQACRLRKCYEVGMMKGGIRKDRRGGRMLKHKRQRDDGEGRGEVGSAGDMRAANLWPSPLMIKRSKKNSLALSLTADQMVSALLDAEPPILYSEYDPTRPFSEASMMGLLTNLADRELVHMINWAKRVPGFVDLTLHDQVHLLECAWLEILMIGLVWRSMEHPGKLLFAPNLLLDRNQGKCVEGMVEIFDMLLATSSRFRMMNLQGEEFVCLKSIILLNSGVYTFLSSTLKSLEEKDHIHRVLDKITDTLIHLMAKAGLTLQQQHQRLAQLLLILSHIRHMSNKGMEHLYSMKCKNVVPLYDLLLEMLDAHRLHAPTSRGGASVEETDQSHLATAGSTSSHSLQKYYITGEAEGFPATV
Briefly: Estrogen Receptor Binding Assay. The conditions noted are these: pH 7.5; 22 °C. The procedure:
(§1) The binding affinities were determined by a competitive radiometric binding assay using [3H]estradiol as tracer. The Kd for 3H-estradiol was determined by saturation binding to ER receptors. The IC50 values for compounds were converted to Ki using Cheng-Prusoff equation.

For another assay, the target named is Estrogen receptor beta (Homo sapiens, UniProt Q92731). Put plainly: Estrogen Receptor Binding Assay. The conditions noted are these: pH 7.5; 22 °C. The procedure:
as §1

Estrogen receptor beta, sequence (Q92731 whole entry): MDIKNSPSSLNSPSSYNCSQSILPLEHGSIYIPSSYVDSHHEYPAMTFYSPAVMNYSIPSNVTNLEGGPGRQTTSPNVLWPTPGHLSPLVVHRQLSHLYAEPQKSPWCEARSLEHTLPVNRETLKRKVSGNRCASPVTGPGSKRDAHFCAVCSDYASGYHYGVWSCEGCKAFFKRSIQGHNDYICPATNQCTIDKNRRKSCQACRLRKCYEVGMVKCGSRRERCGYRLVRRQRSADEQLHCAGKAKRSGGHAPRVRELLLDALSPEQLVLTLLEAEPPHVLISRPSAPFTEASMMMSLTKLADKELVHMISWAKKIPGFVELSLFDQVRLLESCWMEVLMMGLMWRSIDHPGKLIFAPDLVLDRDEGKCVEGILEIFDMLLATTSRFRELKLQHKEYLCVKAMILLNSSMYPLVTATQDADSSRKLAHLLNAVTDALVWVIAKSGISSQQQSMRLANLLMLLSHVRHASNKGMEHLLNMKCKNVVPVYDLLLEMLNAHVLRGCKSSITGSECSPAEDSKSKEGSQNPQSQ

Consider `Oc1cccc([C@@H]2Oc3ccc(O)cc3[C@@H]3CCC[C@@H]32)c1` (racemic) [(2R,6S,7R)-7-(3-hydroxyphenyl)-8-oxatricyclo[7.4.0.0^{2,6}]trideca-1(9),10,12-trien-12-ol], for which the inhibition constant (Ki) at Estrogen receptor worked out at 65 nM.

`Oc1ccc([C@@H]2Oc3cccc(O)c3[C@@H]3CCC[C@@H]32)cc1` [racemic mixture]: the Ki at Estrogen receptor beta came to 0.66 nM; on Estrogen receptor, 0.35 nM.

For the molecule `Oc1ccc([C@@H]2Oc3ccccc3[C@@H]3CCC[C@@H]32)cc1` (racemic) [4-[(2R,6S,7R)-8-oxatricyclo[7.4.0.0^{2,6}]trideca-1(9),10,12-trien-7-yl]phenol], the Ki at Estrogen receptor beta is 22.1 nM; at Estrogen receptor, 40 nM. In the same order, the values of `Oc1ccc([C@@H]2Oc3cc(O)ccc3[C@@H]3CCC[C@@H]32)cc1` [racemic mixture] are 18.9 nM and 41 nM. At Estrogen receptor, `Oc1ccc2c(c1)[C@@H]1CCC[C@@H]1[C@H](c1ccccc1)O2` [racemic mixture] registered a Ki of 267 nM. `Oc1ccc([C@@H]2Oc3ccc(O)cc3[C@@H]3CCCC[C@@H]32)cc1` [racemic mixture]: the Ki at Estrogen receptor beta stood at 0.63 nM; at Estrogen receptor, 2.88 nM.

Consider `Oc1ccc([C@@H]2CCc3cc(O)ccc3O2)cc1` [racemic mixture], for which the affinity at Estrogen receptor, expressed as Ki, was 126 nM.

Turning to `Oc1ccc([C@@H]2Oc3ccc(O)cc3[C@@H]3CCCCC[C@@H]32)cc1` [racemic mixture], the figures for the Ki on Estrogen receptor beta and at Estrogen receptor were 0.88 nM and 6.11 nM, respectively.
